The values that follow are results of earlier work, collected in patent US9440985B2, “Tricyclic derivatives of N,N′-substituted 3,7-diazabicyclo [3.3.1]nonanes and drugs based thereon” (priority 2011, dated 2016).

The test system of data set [1] is AMPA receptors. Particulars: adult rats; 0.3-3 mg/kg.
For data set [2], the system named is AMPA receptors. Particulars: high concentrations.
Data set [3] has as its system AMPA receptors.

For `O=C(c1ccc2c(c1)OCCO2)N1CCCCC1` [CX546], the social memory entry in the data set with AMPA receptors [1] is given as “improves social memory”.

For `COc1ccc(C(=O)N2CCCC2=O)cc1` [aniracetam], the “concentration at which the clinical effect is manifested” value in the data set with AMPA receptors [2] is given as 0.1 mM. Further, in the data set on AMPA receptors [3], the NMDA-mediated signals entry was “no effect”. Besides, in the data set with AMPA receptors [3] (several hippocampus sites), the synaptic signal result is on record as “enhances the synaptic signal”.
